Series [1] deals with CB2R (Homo sapiens, UniProt P34972). As to the kind of experiment: CB2R radioligand displacement binding assay (CP55940 radioligand). Conditions: Table 1; CP55940 radioligand; read-out: CB2_KI_CP.
Series [2] addresses human CB1R (hCB1R) (Homo sapiens, UniProt P21554). The series can be described thus: human CB1R (hCB1R) calcium flux assay. It counts as cell-based. Conditions: Table 1; read-out: Ca Flux % Emax. The source says: Compounds were first screened for: a) CB1R and CB2R binding, b) CB1R agonist activity using the human CB1R (hCB1R) calcium flux assay, and c) BBB permeability using the Madin-Darby canine kidney (MDCK-MDR1) cell line assay.
The calcium 3 dye assays were run according to manufacturer's specifications (http://www.moleculardevices.com/Products/Assay-Kits/GPCRs/FLIPR-Calcium.html) and as reported in our previous publications^112,113. Briefly, wells of black clear-bottom 96-well tissue culture-treated plates are seeded with 20,000 cells the afternoon before assay. The day of assay, the cells are incubated with the Ca^2+ indicator dye for 1 hr @ 37° C. For antagonist assays, the test compound is preincubated with the cells during the last 10 min of the dye incubation. Basal or unstimulated fluorescence intensity is recorded in the FlexStation @ 37° C. for 13 sec followed by the addition of test compound or CP 55,940 (depending on the assay endpoint). Fluorescence intensity is recorded for an additional 47 sec. The effect of test compound in each well is determined by subtracting the minimum from the maximum fluorescence during the 47-sec recording period.

Series [3] is described as follows: S9 fraction stability assay. It counts as in vitro ADME. Conditions: 30 min; rat liver S9, 10 μM. The method, then: Compounds are incubated at 10 μM in rat (male Sprague Dawley) liver S9 at 37° C. Each compound is prepared in ethanol at a concentration of 1 mM. An assay mixture containing S9 (1 mg protein/mL final concentration) and an NADPH regenerating system (NADP [1 mM final], glucose 6-phosphate [5 mM final] and glucose 6-phosphate dehydrogenase [1 U/mL final]) in a buffer consisting of 50 mM KPO4 phosphate buffer, pH 7.4 with 3 mM MgCl2 is prepared and preincubated at 37° C. for 5 min. A 10 μL volume of the 1 mM solution is added to 990 μL of assay mixture in a glass test tube @ 37° C. to initiate the assay. Samples (50 μL) are removed at 0, 15, 30, 60 and 120 min and immediately extracted with 3 volumes (150 μL) of methanol, centrifuged to pellet protein and supernatants transferred to LC/MS vials for analysis.

In series [4] the test system is sciatic nerve entrapment (SNE) neuropathy. The series can be described thus: SNE neuropathy, mechanical allodynia (von Frey). It counts as in vivo, rat. The essentials: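 Rats with unilateral sciatic nerve entrapment via polyethylene cuff were tested before and after injury. After 10 min acclimation on a mesh floor, hindpaw withdrawal pressure (g) was read with a digital von Frey meter, 4 times per paw at 30-s intervals, and averaged per paw per session.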

Series [5] has as its system rats. The series can be described thus: Catalepsy (ring) test of the tetrad. It counts as in vivo, rat. The protocol:
Catalepsy (ring) test. Catalepsy was determined with a ring immobility test^154, modified for rats^139, 153. Rats are placed with their forepaws on a horizontal metal ring (12 cm diameter) at a height that allows their hindpaws to just touch the bench surface. Immobility is recorded as the time for the rat to move off the ring with a 100 s cutoff. Rats are tested before vehicle/drug injections and again at various times after injection.

For series [6], the system named is rats. As to the kind of experiment: Hypothermia test of the tetrad. It counts as in vivo, rat. The method, then: Rats are acclimated to a plastic restrainer apparatus (Model RTV-180 Braintree Scientific Inc.) on the day of testing by placing them in the restrainer twice for 5 min separated by 20 min. Baseline core temperature is taken before treatment, and the rectal temperature is measured again at various times after injection of the CB1R ligands.

The test system of series [7] is rats. As to the kind of experiment: Rotarod test of the tetrad. The series is classed as in vivo, rat. The protocol: Rats were tested for motor function and the ataxic effects of novel drugs as described previously^151-153. To determine drug effects on motor coordination, rats are trained 72 h before the test (3 sessions 24 h apart) to remain for at least 180 s on a rotarod revolving at an acceleration of 4-40 revs over 5 min). Rats are tested immediately before vehicle or drug injections and tested again at 2, 6, 24 and 48 hrs after injection. The time for which the rats are able to remain on the rotarod is recorded up to a cut-off of 5 min.

The test system of series [8] is rats. The series can be described thus: Tail-flick test of the tetrad. It counts as in vivo, rat. As to conditions: 0.3 mg/kg, intraperitoneal. The source says: A modified Hargreaves apparatus (Model 390, IITC Instr.) is used to measure tail-flick latency (TFL). Radiant heat is directed to a point 3 cm from the tail tip and the TFL observed and timed with a photo cell counter. The intensity of the radiant heat is adjusted for a baseline TFL of approximately 5-7 seconds for naïve rats, with a 25 s cutoff set to avoid tissue damage (see FIG. 3).

Where [9] appears, read: 0.3 mg/kg, intraperitoneal, listed as 13339-145-35.

Entries after “also recorded” stand apart in the source; their conditions may differ.

Chain of human CB1R (hCB1R) (P21554 whole entry): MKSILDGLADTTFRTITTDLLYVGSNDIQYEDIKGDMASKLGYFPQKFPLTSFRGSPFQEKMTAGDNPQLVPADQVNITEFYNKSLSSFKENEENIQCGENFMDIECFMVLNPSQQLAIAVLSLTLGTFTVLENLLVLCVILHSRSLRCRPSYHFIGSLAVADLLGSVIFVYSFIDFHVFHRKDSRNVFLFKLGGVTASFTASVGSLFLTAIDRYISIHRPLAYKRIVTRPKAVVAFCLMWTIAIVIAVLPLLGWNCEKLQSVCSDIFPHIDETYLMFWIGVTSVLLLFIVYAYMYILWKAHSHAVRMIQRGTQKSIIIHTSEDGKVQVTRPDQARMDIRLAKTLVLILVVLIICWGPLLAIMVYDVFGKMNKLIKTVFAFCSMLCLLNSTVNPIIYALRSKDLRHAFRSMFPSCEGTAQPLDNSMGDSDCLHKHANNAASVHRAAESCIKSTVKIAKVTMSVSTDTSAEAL
Chain of CB2R (P34972 whole entry): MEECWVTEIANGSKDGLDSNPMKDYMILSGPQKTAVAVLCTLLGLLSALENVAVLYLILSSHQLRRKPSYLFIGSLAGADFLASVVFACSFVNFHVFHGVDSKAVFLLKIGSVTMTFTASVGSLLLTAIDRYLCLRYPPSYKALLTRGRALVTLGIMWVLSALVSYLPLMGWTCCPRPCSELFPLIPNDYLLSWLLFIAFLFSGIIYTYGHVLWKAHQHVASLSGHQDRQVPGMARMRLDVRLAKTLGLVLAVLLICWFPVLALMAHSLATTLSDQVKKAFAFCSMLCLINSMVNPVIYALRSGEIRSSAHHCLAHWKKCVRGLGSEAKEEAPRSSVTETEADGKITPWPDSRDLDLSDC

Take `CCCc1ccc(/C=C2\C=C(CCN3CCOCC3)c3ccccc32)c2ccccc12` [Compound 9, 4-{2-[(1E)-1-[(4-propylnaphthalen-1-yl)methylidene]-1H-inden-3-yl]ethyl} morpholine]: the Ki in series [1] was 1 nM. Moreover, the Emax in series [2] was found to be 108%. In series [3], the “S9% remaining @ xy min” value is given as 39%. In series [4] (0.3 mg/kg, systemic injection), the “effect on SNE-induced mechanical allodynia (ipsilateral hindpaw withdrawal thresholds)” value is given as “large, reversible increases”. In addition, the “SNE Neuropath Assay-% return to pre-drug (0.3 mg/kg) contralateal threshold at 2-3 h” value in series [4] (0.3 mg/kg, 2-3 h) is reported as 110%. In addition, in series [4] (0.3 mg/kg, hindpaw contralateral to SNE), the “effect on contralateral hindpaw withdrawal thresholds” value is given as “small, but significant increases”. Moreover, in series [4] (0.6 mg/kg), the “effect on SNE-induced mechanical allodynia” value is reported as “Suppression of SNE-induced mechanical allodynia”. The “suppression of neuropathy symptoms after oral administration” value in series [4] (3 mg/kg, gavage) is “effective in suppressing neuropathy symptoms”. Also, the “anti-allodynic effects at the 24 hr time point after oral administration” value in series [4] (3 mg/kg, gavage, 24 hr) was “potent anti-allodynic effects”. Moreover, in series [5] (setting [9]), the “effect in the catalepsy assay” value is “no effect; also recorded: complete lack of effects”. In addition, in series [5] (1-3 hrs), the “Catalepsy % change from pre-drug (0.3 mg/kg) at 1-3 hrs” value is 0%. In series [6] (0.3 mg/kg, intraperitoneal), the “effect in the hypothermia assay” value is listed as “no effect”. Besides, in series [6] (2-3 hr), the “Hypothermia % change from predrug (0.3 mg/kg) at 2-3 hr” value is 0%. Besides, the “effect in the rotarod assay” value in series [7] (setting [9]) is “no effect; also recorded: complete lack of effects”. In addition, the “Rotarod % change from pre-drug (0.3 mg/kg) at 2-3 hr” value in series [7] (2-3 hr) turned out to be 0%. The “effect in the tail-flick assay” value in series [8] was “small effect”.

For the origin of these results see patent publication US9656981B2, “Peripherally-acting cannabinoid receptor agonists for chronic pain” (The Regents of the University of California, priority 2012, dated 2017).
